Results on 28 molecules are retold here after ChEMBL document CHEMBL3044558, “Structure-activity relationship development of dihaloaryl triazole compounds as insecticides and acaricides. 1. Phenyl thiophen-2-yl triazoles” (2007).

Molecules are shown by their SMILES. Activity calls are given as the source filed them. No cut-off for these calls is given here.

For assay [1], the system named is Bemisia tabaci. Nature of the assay: Insecticidal activity against Bemisia tabaci (sweet potato whitefly) second-instar larvae infested five weeks old cotton plants followed by compound 250 ppm compound spraying after insect oviposit assessed as insect mortality measured 13 days post compound treatment under green house conditions. Format: functional.
The next assay concerns Trichoplusia ni. As to the kind of experiment: Insecticidal activity against Trichoplusia ni (cabbage looper) second-instar larvae infested on 400 ppm compound pre-treated cabbage leaf disk assessed as insect mortality measured 5 days post compound treatment under green house conditions. Particulars: at 400 ppm. Format: functional.
In a further assay the test system is Spodoptera exigua. As to the kind of experiment: Insecticidal activity against Spodoptera exigua second-instar larvae feeded on 400 ppm compound treated lepidopteran diet assessed as insect mortality measured 5 days post compound treatment under green house conditions. Format: functional. The following applies: at 400 ppm.
The test system of the next assay is Heliothis virescens. As to the kind of experiment: Insecticidal activity against Heliothis virescens (tobacco budworm) second-instar larvae infested on 400 ppm compound pre-treated cotton cotyledon disk assessed as insect mortality measured 5 days post compound treatment under green house conditions. Format: functional.
In the next assay the test system is Tetranychus urticae. As to the kind of experiment: Insecticidal activity against female Tetranychus urticae (two-spotted spider mite) infested cotton leaf disks followed by 2.5 ppm compound spraying after oviposit assessed as insect mortality measured after 6 days post compound application under green house conditions. Format: functional. The following applies: foliar, 144 h.

The test system of assay [2] is Aphis gossypii. As to the kind of experiment: Insecticidal activity against Aphis gossypii (cotton aphid) infested one week old Crookneck squash plants assessed as insect mortality at 50 ppm measured after 3 days post compound application under green house conditions. Format: functional. Particulars: 72 h.
The subject of assay [3] is Bemisia tabaci.
For assay [4], the system named is Aphis gossypii.

By mortality is commonly meant the share of the test organisms that died. For the molecule `Cc1c(-c2ccc(OC(F)=C(Cl)Cl)cc2)csc1-c1nc(-c2c(F)cccc2Cl)nn1C`, the mortality in the assay with Bemisia tabaci [1] is 70%; in the assay on Trichoplusia ni, under 50%; in the assay with Spodoptera exigua, 80%; in the assay on Heliothis virescens it was 90%. Also, the mortality at 2.5 ppm with Tetranychus urticae was determined as 90%. Further, in the assay on Aphis gossypii [2], the mortality at 50 ppm is 70%.
Consider `Cc1c(-c2ccc(OC(F)(F)C(F)C(F)(F)F)cc2)csc1-c1nc(-c2c(F)cccc2Cl)nn1C` (stereo not given), for which the mortality stood at 90% in the assay with Bemisia tabaci [1], 90% with Trichoplusia ni, 60% with Spodoptera exigua and 90% with Heliothis virescens. The mortality at 2.5 ppm in the assay on Tetranychus urticae worked out at 90%. Further, in the assay on Aphis gossypii [2], the mortality at 50 ppm came out at 90%.
Consider `CCOc1ccc(-c2cc(Cl)c(-c3nc(-c4c(F)cccc4F)nn3C)s2)cc1`, for which the mortality with Trichoplusia ni is under 50%; in the assay on Spodoptera exigua, 60%; in the assay with Heliothis virescens, 90%. Further, the mortality at 2.5 ppm in the assay on Tetranychus urticae is 80%. Moreover, the mortality result in the assay with Bemisia tabaci [3] and in the assay with Aphis gossypii [4] was “inactive” each time.
Turning to `Cc1c(-c2ccc(OC(F)(F)C(Cl)Cl)cc2)csc1-c1nc(-c2c(F)cccc2Cl)nn1C`, the mortality in the assay on Bemisia tabaci [1] is recorded as 90%; in the assay on Trichoplusia ni, under 50%; with Spodoptera exigua, 90%; in the assay with Heliothis virescens, 90%. Also, the mortality at 2.5 ppm in the assay on Tetranychus urticae came out at 90%. For the same molecule, the mortality at 50 ppm in the assay on Aphis gossypii [2] is 90%.
In the case of `Cc1cc(-c2ccc(OC(C)C)cc2)sc1-c1nc(-c2c(F)cccc2Cl)nn1C`, the mortality in the assay on Trichoplusia ni was determined as 90%; in the assay on Spodoptera exigua, 60%; in the assay on Heliothis virescens it was 80%. Moreover, in the assay with Tetranychus urticae, the mortality at 2.5 ppm came out at 60%. For the same molecule, the mortality entry in the assay with Aphis gossypii [4] was “inactive”.
Consider `Cc1cc(-c2cccc(C(F)(F)F)c2)sc1-c1nc(-c2c(F)cccc2Cl)nn1C`, for which the mortality with Trichoplusia ni was 90%; in the assay on Spodoptera exigua it was 70%; with Heliothis virescens, under 50%. For the same molecule, in the assay on Tetranychus urticae, the mortality at 2.5 ppm is under 50%. The mortality at 50 ppm in the assay on Aphis gossypii [2] is under 50%. For the same molecule, in the assay on Bemisia tabaci [3], the mortality result is “inactive”.
In the case of `CSc1ccc(-c2cc(Cl)c(-c3nc(-c4c(F)cccc4Cl)nn3C)s2)cc1`, the mortality in the assay on Bemisia tabaci [1] is recorded as under 50%; in the assay with Trichoplusia ni, 80%; in the assay on Spodoptera exigua it was 60%; with Heliothis virescens, 90%. Further, the mortality at 2.5 ppm in the assay on Tetranychus urticae came out at 90%. For the same molecule, in the assay with Aphis gossypii [2], the mortality at 50 ppm was determined as 60%.
In the case of `Cn1nc(-c2c(F)cccc2Cl)nc1-c1sc(-c2ccc(Br)cc2)cc1Cl`, the figures for the mortality in the assay with Trichoplusia ni, in the assay with Spodoptera exigua and in the assay with Heliothis virescens were 90%, 80% and 90%, respectively. The mortality at 2.5 ppm with Tetranychus urticae came out at 90%. Besides, in the assay on Aphis gossypii [2], the mortality at 50 ppm was determined as 90%. Further, the mortality result with Bemisia tabaci [3] was “inactive”.
For `Cc1cc(-c2ccc(F)cc2)sc1-c1nc(-c2c(F)cccc2Cl)nn1C`, the mortality is reported as 90% in the assay with Trichoplusia ni, 80% with Spodoptera exigua and 90% in the assay on Heliothis virescens. The mortality at 2.5 ppm in the assay on Tetranychus urticae was 60%. The mortality at 50 ppm in the assay with Aphis gossypii [2] is under 50%. For the same molecule, in the assay on Bemisia tabaci [3], the mortality entry is “inactive”.
On to `Cc1sc(-c2nc(-c3c(F)cccc3Cl)nn2C)c(C)c1-c1ccc(OC(F)(F)F)cc1`, for which the mortality is 60% with Bemisia tabaci [1], under 50% in the assay on Trichoplusia ni, 90% in the assay on Spodoptera exigua and 90% with Heliothis virescens. Besides, the mortality at 2.5 ppm with Tetranychus urticae was determined as 90%. In addition, in the assay on Aphis gossypii [2], the mortality at 50 ppm came to 70%.
For the molecule `Cn1nc(-c2c(F)cccc2Cl)nc1-c1sc(-c2ccc(C(F)(F)F)cc2)cc1Cl`, the mortality is reported as under 50% in the assay on Bemisia tabaci [1], 90% in the assay with Trichoplusia ni, 60% in the assay on Spodoptera exigua and 90% in the assay on Heliothis virescens. Moreover, in the assay on Tetranychus urticae, the mortality at 2.5 ppm was 90%. In addition, in the assay on Aphis gossypii [2], the mortality at 50 ppm was determined as 90%.
In the case of `Cc1cc(-c2ccc(Cl)cc2)sc1-c1nc(-c2c(F)cccc2Cl)nn1C`, the mortality in the assay on Bemisia tabaci [1] came out at 60%; in the assay on Trichoplusia ni, 90%; in the assay on Spodoptera exigua, 90%; in the assay on Heliothis virescens, 90%. In addition, in the assay on Tetranychus urticae, the mortality at 2.5 ppm came to 90%. For the same molecule, the mortality at 50 ppm with Aphis gossypii [2] stood at 60%.
For the molecule `Cc1cc(-c2ccc(OC(F)(F)C(Cl)Cl)cc2)sc1-c1nc(-c2c(F)cccc2Cl)nn1C`, the mortality in the assay on Bemisia tabaci [1] was 50%; with Trichoplusia ni, 80%; with Spodoptera exigua it was 90%; in the assay with Heliothis virescens it was 90%. In the assay on Tetranychus urticae, the mortality at 2.5 ppm came to 90%. The mortality at 50 ppm with Aphis gossypii [2] was found to be 90%.
For `CCOc1ccc(-c2csc(-c3nc(-c4c(F)cccc4Cl)nn3C)c2C)cc1`, the mortality in the assay with Bemisia tabaci [1] is listed as 90%; in the assay with Trichoplusia ni it was 90%; with Spodoptera exigua, 80%; with Heliothis virescens it was 90%. Moreover, the mortality at 2.5 ppm in the assay on Tetranychus urticae was 90%. Moreover, in the assay on Aphis gossypii [2], the mortality at 50 ppm is 50%.
Turning to `Cc1cc(-c2ccc(OC(F)(F)C(F)C(F)(F)F)cc2)sc1-c1nc(-c2c(F)cccc2Cl)nn1C` (stereo not given), the mortality is given as under 50% with Bemisia tabaci [1], 90% in the assay with Trichoplusia ni, 80% in the assay on Spodoptera exigua and 90% with Heliothis virescens. In addition, the mortality at 2.5 ppm in the assay on Tetranychus urticae is 90%. In the assay on Aphis gossypii [2], the mortality at 50 ppm is 90%.
`Cc1sc(-c2nc(-c3c(F)cccc3Cl)nn2C)c(C)c1-c1ccc(OC(F)(F)C(F)Br)cc1` (stereo not given): the mortality with Bemisia tabaci [1] is 80%; in the assay with Spodoptera exigua, 80%; with Heliothis virescens, 90%. Besides, in the assay with Tetranychus urticae, the mortality at 2.5 ppm is 80%. Further, in the assay with Aphis gossypii [2], the mortality at 50 ppm was found to be 50%.
For the molecule `Cc1sc(-c2nc(-c3c(F)cccc3Cl)nn2C)c(C)c1-c1ccc(Cl)cc1`, the mortality with Trichoplusia ni is under 50%; in the assay on Spodoptera exigua it was 80%; in the assay with Heliothis virescens, 90%. Further, in the assay on Tetranychus urticae, the mortality at 2.5 ppm is 80%. Moreover, the mortality at 50 ppm with Aphis gossypii [2] amounted to 50%. The mortality entry in the assay with Bemisia tabaci [3] was “inactive”.
In the case of `Cn1nc(-c2c(F)cccc2Cl)nc1-c1sc(-c2ccc(OC(F)(F)F)cc2)c(Br)c1Cl`, the mortality with Bemisia tabaci [1] is listed as under 50%; in the assay with Trichoplusia ni, 70%; in the assay on Spodoptera exigua, 90%; in the assay with Heliothis virescens, 90%. Moreover, the mortality at 2.5 ppm in the assay on Tetranychus urticae worked out at 80%. The mortality at 50 ppm in the assay with Aphis gossypii [2] came out at 60%.
Consider `Cc1cc(C2CCC(OC(F)(F)C(F)Cl)CC2)sc1-c1nc(-c2c(F)cccc2Cl)nn1C` (stereo not given), for which the mortality with Trichoplusia ni, with Spodoptera exigua and in the assay with Heliothis virescens was 90% throughout. In addition, the mortality at 2.5 ppm in the assay on Tetranychus urticae was 80%. Also, the mortality at 50 ppm with Aphis gossypii [2] was under 50%.
As for `Cc1c(-c2ccc(OC(F)(F)C(F)Cl)cc2)sc(-c2nc(-c3c(F)cccc3Cl)nn2C)c1C` (stereo not given), the mortality is recorded as 60% in the assay on Bemisia tabaci [1], under 50% in the assay with Trichoplusia ni, 60% in the assay with Spodoptera exigua and 90% with Heliothis virescens. In the assay on Tetranychus urticae, the mortality at 2.5 ppm was found to be 80%. The mortality at 50 ppm in the assay on Aphis gossypii [2] is under 50%.
As to `Cc1cc(-c2ccc(C(F)(F)F)cc2)sc1-c1nc(-c2c(F)cccc2Cl)nn1C`, the mortality in the assay on Bemisia tabaci [1] is recorded as under 50%; in the assay on Trichoplusia ni, 90%; with Spodoptera exigua, 90%; in the assay on Heliothis virescens, 90%. For the same molecule, the mortality at 2.5 ppm in the assay with Tetranychus urticae was determined as 90%. Also, the mortality at 50 ppm in the assay with Aphis gossypii [2] was under 50%.
`Cc1cc(-c2ccc(C(C)C)cc2)sc1-c1nc(-c2c(F)cccc2Cl)nn1C`: the mortality with Trichoplusia ni amounted to 90%; in the assay on Spodoptera exigua, 70%; in the assay on Heliothis virescens, 90%. Further, the mortality at 2.5 ppm with Tetranychus urticae was 90%. Also, the mortality at 50 ppm with Aphis gossypii [2] is under 50%. The mortality result with Bemisia tabaci [3] was “inactive”.
With `Cc1cc(-c2cccc(C(F)(F)F)c2F)sc1-c1nc(-c2c(F)cccc2Cl)nn1C`, the mortality with Trichoplusia ni was 90%; with Spodoptera exigua, 60%; in the assay on Heliothis virescens it was 90%. In addition, the mortality at 2.5 ppm in the assay with Tetranychus urticae worked out at 90%. Also, the mortality at 50 ppm in the assay on Aphis gossypii [2] is 60%. Besides, the mortality entry in the assay with Bemisia tabaci [3] was “inactive”.
As to `Cn1nc(-c2c(F)cccc2F)nc1-c1sc(-c2ccc(OC(F)(F)F)cc2)cc1Cl`, the mortality is under 50% in the assay with Trichoplusia ni, under 50% in the assay on Spodoptera exigua and 80% in the assay with Heliothis virescens. Further, the mortality at 2.5 ppm with Tetranychus urticae was found to be 90%. Moreover, the mortality at 50 ppm in the assay with Aphis gossypii [2] came to 80%. Moreover, the mortality result in the assay on Bemisia tabaci [3] was “inactive”.
For the molecule `Cc1sc(-c2nc(-c3c(F)cccc3Cl)nn2C)c(C)c1-c1ccc(OC(F)(F)C(F)Cl)cc1` (stereo not given), the mortality was 80% in the assay with Bemisia tabaci [1], under 50% with Trichoplusia ni, 80% in the assay with Spodoptera exigua and 80% in the assay on Heliothis virescens. In addition, the mortality at 2.5 ppm with Tetranychus urticae was 70%. In the assay with Aphis gossypii [2], the mortality at 50 ppm is under 50%.
Turning to `Cc1c(-c2ccc(OC(F)(F)F)cc2)sc(-c2nc(-c3c(F)cccc3Cl)nn2C)c1C`, the mortality in the assay with Bemisia tabaci [1] is on record as 70%; with Trichoplusia ni it was 90%; with Spodoptera exigua it was 80%; with Heliothis virescens, under 50%. Besides, the mortality at 2.5 ppm in the assay on Tetranychus urticae was found to be 90%. Further, in the assay with Aphis gossypii [2], the mortality at 50 ppm was under 50%.
On to `CCOc1ccc(-c2sc(-c3nc(-c4c(F)cccc4Cl)nn3C)c(C)c2C)cc1`, for which the values for the mortality in the assay on Trichoplusia ni, in the assay with Spodoptera exigua and in the assay on Heliothis virescens were 80%, 90% and under 50%, respectively. Further, the mortality at 2.5 ppm with Tetranychus urticae turned out to be 90%. In addition, the mortality at 50 ppm with Aphis gossypii [2] was under 50%. Moreover, the mortality entry with Bemisia tabaci [3] is “inactive”.
Turning to `CCOc1ccc(-c2sc(-c3nc(-c4c(F)cccc4Cl)nn3C)c(Cl)c2Br)cc1`, the results for the mortality in the assay on Trichoplusia ni, in the assay with Spodoptera exigua and in the assay with Heliothis virescens were under 50%, 90% and 90%, respectively. For the same molecule, the mortality at 2.5 ppm in the assay with Tetranychus urticae came to 60%. In addition, the mortality at 50 ppm in the assay on Aphis gossypii [2] is under 50%. For the same molecule, the mortality result in the assay on Bemisia tabaci [3] was “inactive”.
